Test results taken from patent publication US20250269043A1, “TARGETED BIFUNCTIONAL DEGRADERS” (YALE UNIVERSITY, priority 2019, published 2025).
Square brackets hold non-standard residues; d marks the D form. Peptide text beside a SMILES is read from it. * marks the point of attachment. Sta = CC(C)C[C@H](N)[C@@H](O)CC(=O)O; Isovaleryl = CC(C)CC(=O)*

Columns and labels:
HepG2 cells [1] = assay: Effect of protease inhibitors on degradation of endocytosed α-DNP antibody in HepG2 cells (50 kDa/25 kDa band ratio); settings: for inhibition of α-DNP antibody degradation (triplicate): 12 hours, each concentration in triplicate, ALLN 100 and 10 μM, FIG. 117; for inhibition of α-DNP antibody degradation (initial screening): leupeptin 20 and 80 μM, E64 50 and 10 μM, antipain 50 and 100 μM, aprotinin 400 or 800 nM, PMSF 100 or 500 μM, AEBSF 10 μM, ALLN 10 μM, FIG. 116
From the text: The ratiometric comparison of band intensity at 50 kDa divided by the intensity of the 25 kDa was used as a measure of α-DNP antibody degradation. As endocytosed α-DNP antibody is degraded in cells, this ratio decreases. […] Each ratiometric measurement is produced using only the protein fragments present in the cell lysate.
Protease inhibitors which inhibit α-DNP antibody degradation are expected to cause an accumulation of fluorescent intensity at 50 kDa and a decrease in fluorescent intensity at 25 kDa.
Next it was studied whether the inhibition of α-DNP antibody degradation by protease inhibitors was reproducible. Each protease inhibitor concentration was tested in triplicate in HepG2 cells (FIG. 117).
Pepstatin at a concentration 15 μM was included as a negative control.

HepG2 cells [2] = assay: MIF-GN3-mediated endocytosis of Alexa 488-labeled human MIF by HepG2 cells; settings: for effect of endocytic pathway inhibitors on MIF-GN3-mediated MIF endocytosis: MIF 100 nM, MIF-GN3 200 nM, FIG. 132
Procedure: Human MIF protein was fluorescently labeled with Alexa 488 NHS ester, then incubated with HepG2 cells in the presence of varying levels of MIF-GN3.
The ability of MIF-GN3 to mediate MIF endocytosis over a wide range of target protein concentrations was assessed.
Next, inhibitors of various endocytic pathways were utilized to determine if MIF-GN3 mediates MIF endocytosis in a manner consistent with ASGPR (FIG. 132).

HepG2 cells [3] = assay: DNP-GN3-mediated endocytosis of fluorescently labeled α-DNP antibody by adherent HepG2 cells; type: cell-based, human; settings: sodium azide and 2-deoxyglucose as combined treatment; FIG. 89
Procedure: It was next explored whether DNP-GN3 mediates the endocytosis of fluorescently labeled α-DNP antibody.
To explore the cellular mechanism of antibody uptake, cells were treated with chemical inhibitors of several endocytic pathways (FIG. 89).

α-DNP antibody = assay: In vivo depletion of α-DNP antibody from serum in mice (ELISA); settings: i.p. injection; FIG. 79A
Procedure: FIG. 94 illustrates that serum levels of α-DNP antibody decrease more rapidly following repeated treatment with DNP-GN3. Serum antibody levels were measured using an ELISA assay. Each experimental group contained three mice. Statistical differences in experiments involving in vivo depletion of α-DNP antibody were assessed by repeated measures two-way ANOVA with Tukey's tests for post-hoc comparison of simple effects between each of the treatment groups and PBS.
Single doses of DNP-GN3 were also found to be efficacious at mediating α-DNP antibody depletion, albeit less effectively than daily dosing (FIG. 96). […] Therefore, it was concluded that DNP-GN3 is able to mediate the depletion of a monoclonal antibody from serum, and functions across a wide range of target protein concentrations and dosing regimens.
DNP-GN3 was also found to be efficacious in depleting polyclonal α-DNP antibody from serum collected from mice immunized with DNP-keyhole limpet haemocyanin (KLH) (FIG. 97). […] Thus, the small molecule DNP-GN3 is not restricted in function to only monoclonal mouse antibodies, but is also effective at removing polyclonal α-DNP antibodies from circulation in mice.

human MIF = target: T1, human MIF (Homo sapiens, UniProt P14174); assay: Depletion of human MIF from cell culture supernatant (sandwich ELISA); type: cell-based; settings: for depletion of MIF from cell culture supernatant, optimized ASGPR-binding motifs / depletion of human MIF from cell culture supernatant: human MIF 100 nM; for depletion of MIF from cell culture supernatant, optimized ASGPR-binding motifs: MIF-AF2 at 40 nM, 200 nM and 1 μM; for depletion of human MIF from cell culture supernatant: FIG. 128A
T1 sequence (P14174 2-115 limits assumed): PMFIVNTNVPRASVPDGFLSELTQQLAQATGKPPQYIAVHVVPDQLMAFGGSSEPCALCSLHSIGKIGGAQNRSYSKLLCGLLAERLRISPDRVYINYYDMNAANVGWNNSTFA
Procedure: The ability of bifunctional MIF-binding molecules to mediate the depletion of human MIF from cell culture was investigated. In these assays, human MIF was present at a concentration of 100 nM, and a sandwich ELISA assay was utilized to measure the concentration of human MIF remaining in the cell culture supernatant. The closely related bifunctional molecules MIF-GN3, MIF-PEG2-GN3, and MIF-PEG4-GN3 were used, as well as the structurally dissimilar molecule MIF-NVS-PEG3-GN3. […] Based on the ease of its synthesis and its efficacy in this experiment, MIF-GN3 was utilized for further studies. It was next investigated whether the MIF inhibitor 3w mediates MIF depletion from cell culture supernatant. […] When cells were treated with 3w, no depletion of exogenous MIF protein was observed after 24 hours (FIG. 128B).
Bifunctional molecules containing optimized ASGPR-binding motifs are also capable of mediating MIF depletion from cell culture supernatant (FIG. 129). The MIF-binding molecule MIF-AF1, which contains only a single ASGPR-binding sugar, was not effective at mediating depletion of MIF from supernatant at any concentration tested. It is hypothesized that this is due to the compound's low predicted affinity for ASGPR (μM range). […] At a concentration of either 200 nM or 1 μM, MIF-AF2 mediated nearly 100%/o depletion of MLF from the cell culture supernatant after 48 hours. […] In contrast to these molecules, which utilize optimized synthetic ASGPR ligands, the GalNAc-based molecule MIF-GN3 mediated only 67.0% and 56.0% removal of MIF from supernatant after 48 hours at concentrations of 1 μM and 200 nM, respectively. […] At a concentration of 40 nM (4.0 pmol of molecule), MIF-AF3 mediates the removal of 83.2% of MIF present in the cell culture supernatant, or 8.32 pmol of human MIF protein. Therefore, it was concluded that under the conditions of this experiment, MIF-AF3 mediates the depletion of 2.08 molar equivalents of MIF protein.

Compound: CC(C)C[C@H](NC(=O)[C@@H](O)[C@H](N)Cc1ccccc1)C(=O)O [Bestatin]
- inhibition of α-DNP antibody degradation (triplicate) (HepG2 cells [1]): did not significantly inhibit
- inhibition of α-DNP antibody degradation (initial screening) (HepG2 cells [1]): not effective

Compound: C=C1[C@@H](C)[C@H]2[C@H](Cc3ccccc3)NC(=O)[C@]23[C@H](OC(C)=O)/C=C/[C@@](C)(O)C(=O)[C@@H](C)C/C=C/[C@H]3[C@@H]1O [cytochalasin D]
- toxicity of endocytosis inhibitors to cells (HepG2 cells [2]; HepG2 cells in the presence of MIF and MIF-GN3): toxic
- effect of endocytic pathway inhibitors on intracellular fluorescence (DNP-GN3-mediated uptake) (HepG2 cells [3]): did not significantly decrease

Compound: O=C(CCOCC(COCCC(=O)NCCOCCOCCO)(COCCC(=O)NCCOCCOCCO)NC(=O)CNC(=O)COCCOCCOCCNc1ccc([N+](=O)[O-])cc1[N+](=O)[O-])NCCOCCOCCO [DNP-(OH)3]
- degradation of injected anti-DNP IgG antibodies in mouse serum (α-DNP antibody): did not show such effect

Compound: CC(C)CC(=O)N[C@H](C(=O)N[C@H](C(=O)N[C@@H](CC(C)C)[C@@H](O)CC(=O)N[C@@H](C)C(=O)N[C@@H](CC(C)C)[C@@H](O)CC(=O)O)C(C)C)C(C)C [Pepstatin] (Isovaleryl-VV[Sta]A[Sta]-OH)
- inhibition of α-DNP antibody degradation (triplicate) (HepG2 cells [1]): did not significantly inhibit
- inhibition of α-DNP antibody degradation (initial screening) (HepG2 cells [1]): not effective

Compound: CCN(c1nc(N)c(C(=O)N=C(N)N)nc1Cl)C(C)C [EIPA, 5-(N-Ethyl-N-isopropyl)amiloride]
- effect of endocytic pathway inhibitors on MIF-GN3-mediated MIF endocytosis (HepG2 cells [2]): significantly inhibited uptake
- effect of endocytic pathway inhibitors on intracellular fluorescence (DNP-GN3-mediated uptake) (HepG2 cells [3]): did not significantly decrease

Compound: O=C(CCOCC(COCCC(=O)NCCOCCOCCOCCOC[C@]12CO[C@H](O1)[C@H](NC(=O)C(F)(F)F)[C@@H](O)[C@H]2O)NC(=O)CCCOc1ccc2nc(-c3cn(-c4ccc(O)c(F)c4)nn3)ccc2c1)NCCOCCOCCOCCOC[C@]12CO[C@H](O1)[C@H](NC(=O)C(F)(F)F)[C@@H](O)[C@H]2O [MIF-AF2]
- depletion of MIF from the cell culture supernatant (human MIF; 200 nM or 1 μM, after 48 hours, FIG. 129): ~100%
- depletion of MIF from cell culture supernatant, optimized ASGPR-binding motifs (human MIF; FIG. 129): effective

Compound: CC(=O)NC1C(OCCOCCOCCNC(=O)CCOCC(COCCC(=O)NCCOCCOCCOC2OC(CO)C(O)C(O)C2NC(C)=O)(COCCC(=O)NCCOCCOCCOC2OC(CO)C(O)C(O)C2NC(C)=O)NC(=O)CNC(=O)COCCOCCNC(=O)CCCOc2ccc3nc(-c4cn(-c5ccc(O)c(F)c5)nn4)ccc3c2)OC(CO)C(O)C1O (stereo not drawn) [MIF-PEG2-GN3]
- depletion of exogenous MIF protein from cell culture supernatant (human MIF; 24 hours, FIG. 128B): mediated MIF depletion across a range of concentrations
- depletion of human MIF from cell culture supernatant (human MIF; 24 hours): effective

Compound: O=C(CCOCC(COCCC(=O)NCCOCCOCCOCCOC[C@]12CO[C@H](O1)[C@H](NC(=O)C(F)(F)F)[C@@H](O)[C@H]2O)(COCCC(=O)NCCOCCOCCOCCOC[C@]12CO[C@H](O1)[C@H](NC(=O)C(F)(F)F)[C@@H](O)[C@H]2O)NC(=O)CCCOc1ccc2nc(-c3cn(-c4ccc(O)c(F)c4)nn3)ccc2c1)NCCOCCOCCOCCOC[C@]12CO[C@H](O1)[C@H](NC(=O)C(F)(F)F)[C@@H](O)[C@H]2O [MIF-AF3]
- amount of human MIF protein removed (human MIF; 40 nM (4.0 pmol of molecule)): 8.32 pmol

Compound: CC(C)C[C@H](NC(=O)[C@H]1O[C@@H]1C(=O)O)C(=O)NCCCCN=C(N)N [Compound E64, E64]
- inhibition of α-DNP antibody degradation (triplicate) (HepG2 cells [1]): shown to inhibit
- inhibition of α-DNP antibody degradation (initial screening) (HepG2 cells [1]): effective

Compound: CC(=O)NC1C(OCCOCCOCCNC(=O)CCOCC(COCCC(=O)NCCOCCOCCOC2OC(CO)C(O)C(O)C2NC(C)=O)(COCCC(=O)NCCOCCOCCOC2OC(CO)C(O)C(O)C2NC(C)=O)NC(=O)CNC(=O)COCCOCCOCCn2cc(COCCOCCOc3ccc(N4Cc5ccc(O)cc5OC4=O)cc3)nn2)OC(CO)C(O)C1O (stereo not drawn) [MIF-NVS-PEG3-GN3]
- depletion of human MIF from cell culture supernatant (human MIF; 24 hours): effective

Compound: Cl.NCCc1ccc(S(=O)(=O)F)cc1 [AEBSF, 4-(2-aminoethyl)benzeneulfonyl fluoride hydrochloride]
- inhibition of α-DNP antibody degradation (triplicate) (HepG2 cells [1]): did not significantly inhibit
- toxicity to cells (HepG2 cells [1]; HepG2 cells, pepstatin 5 μM after 24 hours, AEBSF 100 μM, ALLN 100 μM by 24 hours): toxic
- inhibition of α-DNP antibody degradation (initial screening) (HepG2 cells [1]): not effective

Compound: CC(=O)N[C@@H](CC(C)C)C(=O)N[C@@H](CC(C)C)C(=O)N[C@H](C=O)CCCNC(=N)N [leupeptin, Leupeptin]
- inhibition of α-DNP antibody degradation (triplicate) (HepG2 cells [1]): shown to inhibit
- inhibition of α-DNP antibody degradation (initial screening) (HepG2 cells [1]): effective

Compound: O=S(=O)(F)Cc1ccccc1 [PMSF, Phenylmethylsulfonyl fluoride]
- inhibition of α-DNP antibody degradation (triplicate) (HepG2 cells [1]): did not significantly inhibit
- inhibition of α-DNP antibody degradation (initial screening) (HepG2 cells [1]): not effective

Compound: CC[C@@]1([C@@H]2O[C@@H]([C@H]3O[C@@](O)(CO)[C@H](C)C[C@@H]3C)C[C@@H]2C)CC[C@H]([C@]2(C)CC[C@]3(C[C@H](O)[C@@H](C)[C@@H]([C@@H](C)[C@@H](OC)[C@H](C)C(=O)O)O3)O2)O1 [monensin, Monensin]
- effect of endocytic pathway inhibitors on MIF-GN3-mediated MIF endocytosis (HepG2 cells [2]): near background levels
- effect of endocytic pathway inhibitors on intracellular fluorescence (DNP-GN3-mediated uptake) (HepG2 cells [3]): significantly decreased

Compound: Aprotinin
- inhibition of α-DNP antibody degradation (triplicate) (HepG2 cells [1]): did not significantly inhibit
- inhibition of α-DNP antibody degradation (initial screening) (HepG2 cells [1]): not effective

Compound: Cl.N [ammonium chloride, NH4Cl]
- effect of endocytic pathway inhibitors on MIF-GN3-mediated MIF endocytosis (HepG2 cells [2]): near background levels

Compound: CC(=O)NC1C(OCCOCCOCCNC(=O)CCOCC(COCCC(=O)NCCOCCOCCOC2OC(CO)C(O)C(O)C2NC(C)=O)(COCCC(=O)NCCOCCOCCOC2OC(CO)C(O)C(O)C2NC(C)=O)NC(=O)CNC(=O)COCCOCCOCCOCCNC(=O)CCCOc2ccc3nc(-c4cn(-c5ccc(O)c(F)c5)nn4)ccc3c2)OC(CO)C(O)C1O (stereo not drawn) [MIF-PEG4-GN3]
- depletion of human MIF from cell culture supernatant (human MIF; 24 hours): effective

Compound: CO/C1=C\C(C)=C\[C@@H](C)[C@@H](O)[C@@H](C)C/C(C)=C/C=C/[C@H](OC)[C@@H]([C@@H](C)[C@@H](O)[C@H](C)[C@@]2(O)C[C@@H](O)[C@H](C)[C@@H](C(C)C)O2)OC1=O [bafilomycin, Bafilomycin]
- effect of endocytic pathway inhibitors on MIF-GN3-mediated MIF endocytosis (HepG2 cells [2]): near background levels
- effect of endocytic pathway inhibitors on intracellular fluorescence (DNP-GN3-mediated uptake) (HepG2 cells [3]): significantly decreased

Compound: O=C(CCCOc1ccc2nc(-c3cn(-c4ccc(O)c(F)c4)nn3)ccc2c1)NCCOCCC(=O)NCCOCCOCCOCCOC[C@]12CO[C@H](O1)[C@H](NC(=O)C(F)(F)F)[C@@H](O)[C@H]2O [MIF-AF1]
- depletion of MIF from cell culture supernatant, optimized ASGPR-binding motifs (human MIF; FIG. 129): not effective
